Results from PubChem BioAssay AID1963965 (Molecular Pharmacology Branch, DTP, NCI, 2024).

Tested on: 996289-038-R-J1-PDC spheroid viability
Assay: Anticancer human tumor 996289-038-R-J1-PDC patient-derived colon adenocarcinoma cell line growth inhibition [PI3K]
Conditions: spheroids with HUVEC and MSC; for IC50: curve of first compound; for viability, T/C: stronger effect = lower value
Summary of the method: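 Tumor cells were combined with HUVEC and MSCs into spheroids, then dosed with PI3K-inhibitor combinations over half-log ranges capped near clinical Cmax or 10 microM.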

[1] = second compound 0.00316 µM, first compound 0.0316 µM
[2] = second compound 0.00316 µM, first compound 0.1 µM
[3] = second compound 0.00316 µM, first compound 0.316 µM
[4] = second compound 0.00316 µM, first compound 1 µM
[5] = second compound 0.00316 µM, first compound 3.16 µM
[6] = second compound 0.00316 µM, first compound 10 µM
[7] = second compound 0.01 µM, first compound 0.0316 µM
[8] = second compound 0.01 µM, first compound 0.1 µM
[9] = second compound 0.01 µM, first compound 0.316 µM
[10] = second compound 0.01 µM, first compound 1 µM
[11] = second compound 0.01 µM, first compound 3.16 µM
[12] = second compound 0.01 µM, first compound 10 µM
[13] = second compound 0.0316 µM, first compound 0.0316 µM
[14] = second compound 0.0316 µM, first compound 0.1 µM
[15] = second compound 0.0316 µM, first compound 0.316 µM
[16] = second compound 0.0316 µM, first compound 1 µM
[17] = second compound 0.0316 µM, first compound 3.16 µM
[18] = second compound 0.0316 µM, first compound 10 µM
[19] = second compound 0.1 µM, first compound 0.0316 µM
[20] = second compound 0.1 µM, first compound 0.1 µM
[21] = second compound 0.1 µM, first compound 0.316 µM
[22] = second compound 0.1 µM, first compound 1 µM
[23] = second compound 0.1 µM, first compound 3.16 µM
[24] = second compound 0.1 µM, first compound 10 µM
[25] = second compound 0.316 µM, first compound 0.0316 µM
[26] = second compound 0.316 µM, first compound 0.1 µM
[27] = second compound 0.316 µM, first compound 0.316 µM
[28] = second compound 0.316 µM, first compound 1 µM
[29] = second compound 0.316 µM, first compound 3.16 µM
[30] = second compound 0.316 µM, first compound 10 µM
[31] = second compound 1 µM, first compound 0.0316 µM
[32] = second compound 1 µM, first compound 0.1 µM
[33] = second compound 1 µM, first compound 0.316 µM
[34] = second compound 1 µM, first compound 1 µM
[35] = second compound 1 µM, first compound 3.16 µM
[36] = second compound 1 µM, first compound 10 µM
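Further: spheroids exposed to compounds for seven days before viability read.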
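Wherever viability, T/C is given: luminescence used as a proxy for viable cell amount; percent viability relative to DMSO vehicle control as 100%.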

CC(C)NCC(C(=O)N1CCN(c2ncnc3c2C(C)CC3O)CC1)c1ccc(Cl)cc1 (stereo not drawn) + COc1c(OCCCN2CCOCC2)ccc2c3n(c(=NC(=O)c4cnc(N)nc4)nc12)CCN3
IC50 (second compound 0.00316 µM): > 10000 nM | IC50 (second compound 0.01 µM): > 10000 nM | IC50 (second compound 0.0316 µM): > 10000 nM | IC50 (second compound 0.1 µM): 4890 nM | IC50 (second compound 0.316 µM): < 31.6 nM | IC50 (second compound 1 µM): < 31.6 nM | viability, T/C [1]: 98.9% | viability, T/C [2]: 82.3% | viability, T/C [3]: 103% | viability, T/C [4]: 103% | viability, T/C [5]: 103% | viability, T/C [6]: 62.2% | viability, T/C [7]: 87.6% | viability, T/C [8]: 84.9% | viability, T/C [9]: 101% | viability, T/C [10]: 102% | viability, T/C [11]: 106% | viability, T/C [12]: 65.3% | viability, T/C [13]: 86.3% | viability, T/C [14]: 77.1% | viability, T/C [15]: 78% | viability, T/C [16]: 89% | viability, T/C [17]: 76.1% | viability, T/C [18]: 51.1% | viability, T/C [19]: 59.7% | viability, T/C [20]: 55.8% | viability, T/C [21]: 57% | viability, T/C [22]: 66.9% | viability, T/C [23]: 57.3% | viability, T/C [24]: 36.7% | viability, T/C [25]: 32.9% | viability, T/C [26]: 33.7% | viability, T/C [27]: 38.1% | viability, T/C [28]: 32.5% | viability, T/C [29]: 38.6% | viability, T/C [30]: 27.1% | viability, T/C [31]: 24% | viability, T/C [32]: 18.5% | viability, T/C [33]: 18% | viability, T/C [34]: 23% | viability, T/C [35]: 20.1% | viability, T/C [36]: 15.3%

CCN1CCN(Cc2ccc(Nc3ncc(F)c(-c4cc(F)c5nc(C)n(C(C)C)c5c4)n3)nc2)CC1 + COc1c(OCCCN2CCOCC2)ccc2c3n(c(=NC(=O)c4cnc(N)nc4)nc12)CCN3
IC50 (second compound 0.00316 µM): > 1000 nM | IC50 (second compound 0.01 µM): > 1000 nM | IC50 (second compound 0.0316 µM): > 1000 nM | IC50 (second compound 0.1 µM): 41.2 nM | IC50 (second compound 0.316 µM): < 3.16 nM | IC50 (second compound 1 µM): < 3.16 nM | viability, T/C (second compound 0.00316 µM, first compound 0.00316 µM): 107% | viability, T/C (second compound 0.00316 µM, first compound 0.01 µM): 90.6% | viability, T/C [1]: 92.6% | viability, T/C [2]: 97.2% | viability, T/C [3]: 82.9% | viability, T/C [4]: 75.8% | viability, T/C (second compound 0.01 µM, first compound 0.00316 µM): 105% | viability, T/C (second compound 0.01 µM, first compound 0.01 µM): 80.7% | viability, T/C [7]: 82.5% | viability, T/C [8]: 82.7% | viability, T/C [9]: 79.2% | viability, T/C [10]: 67.6% | viability, T/C (second compound 0.0316 µM, first compound 0.00316 µM): 75.2% | viability, T/C (second compound 0.0316 µM, first compound 0.01 µM): 72.5% | viability, T/C [13]: 76% | viability, T/C [14]: 57.3% | viability, T/C [15]: 59.6% | viability, T/C [16]: 53.3% | viability, T/C (second compound 0.1 µM, first compound 0.00316 µM): 57.4% | viability, T/C (second compound 0.1 µM, first compound 0.01 µM): 52.1% | viability, T/C [19]: 50.2% | viability, T/C [20]: 47.3% | viability, T/C [21]: 43.7% | viability, T/C [22]: 35.2% | viability, T/C (second compound 0.316 µM, first compound 0.00316 µM): 46.5% | viability, T/C (second compound 0.316 µM, first compound 0.01 µM): 33.5% | viability, T/C [25]: 29.2% | viability, T/C [26]: 27.2% | viability, T/C [27]: 22.7% | viability, T/C [28]: 24.1% | viability, T/C (second compound 1 µM, first compound 0.00316 µM): 21.2% | viability, T/C (second compound 1 µM, first compound 0.01 µM): 15.1% | viability, T/C [31]: 18.4% | viability, T/C [32]: 15.5% | viability, T/C [33]: 17.6% | viability, T/C [34]: 19%

Cn1ncc(Cl)c1-c1cc(C(=O)NC(CN)Cc2cccc(F)c2)sc1Cl (stereo not drawn) + COc1c(OCCCN2CCOCC2)ccc2c3n(c(=NC(=O)c4cnc(N)nc4)nc12)CCN3
IC50 (second compound 0.00316 µM): 5060 nM | IC50 (second compound 0.01 µM): 2840 nM | IC50 (second compound 0.0316 µM): 1730 nM | IC50 (second compound 0.1 µM): 212 nM | IC50 (second compound 0.316 µM): < 31.6 nM | IC50 (second compound 1 µM): < 31.6 nM | viability, T/C [1]: 99.4% | viability, T/C [2]: 93.6% | viability, T/C [3]: 82% | viability, T/C [4]: 73.2% | viability, T/C [5]: 56.8% | viability, T/C [6]: 39.7% | viability, T/C [7]: 92.4% | viability, T/C [8]: 87.1% | viability, T/C [9]: 74.2% | viability, T/C [10]: 59.9% | viability, T/C [11]: 54.8% | viability, T/C [12]: 26.7% | viability, T/C [13]: 81.6% | viability, T/C [14]: 66.5% | viability, T/C [15]: 70.9% | viability, T/C [16]: 62% | viability, T/C [17]: 37.6% | viability, T/C [18]: 23.7% | viability, T/C [19]: 60.3% | viability, T/C [20]: 59.4% | viability, T/C [21]: 44.6% | viability, T/C [22]: 37.3% | viability, T/C [23]: 31.3% | viability, T/C [24]: 20.5% | viability, T/C [25]: 34.8% | viability, T/C [26]: 33% | viability, T/C [27]: 32.8% | viability, T/C [28]: 32.3% | viability, T/C [29]: 30.5% | viability, T/C [30]: 15.1% | viability, T/C [31]: 18.3% | viability, T/C [32]: 19.7% | viability, T/C [33]: 17% | viability, T/C [34]: 23.1% | viability, T/C [35]: 20.1% | viability, T/C [36]: 11%

Cn1nccc1Nc1nccc(-c2ccn(C(CO)c3ccc(Cl)c(F)c3)c(=O)c2)n1 (stereo not drawn) + COc1c(OCCCN2CCOCC2)ccc2c3n(c(=NC(=O)c4cnc(N)nc4)nc12)CCN3
IC50 (second compound 0.00316 µM): > 10000 nM | IC50 (second compound 0.01 µM): > 10000 nM | IC50 (second compound 0.0316 µM): 5910 nM | IC50 (second compound 0.1 µM): 2560 nM | IC50 (second compound 0.316 µM): < 31.6 nM | IC50 (second compound 1 µM): < 31.6 nM | viability, T/C [1]: 94.8% | viability, T/C [2]: 82.6% | viability, T/C [3]: 104% | viability, T/C [4]: 83.6% | viability, T/C [5]: 86.4% | viability, T/C [6]: 55.6% | viability, T/C [7]: 95.6% | viability, T/C [8]: 87.5% | viability, T/C [9]: 91.2% | viability, T/C [10]: 93.6% | viability, T/C [11]: 73.3% | viability, T/C [12]: 56.3% | viability, T/C [13]: 100% | viability, T/C [14]: 80.1% | viability, T/C [15]: 80% | viability, T/C [16]: 76% | viability, T/C [17]: 58% | viability, T/C [18]: 41.2% | viability, T/C [19]: 69.5% | viability, T/C [20]: 62.8% | viability, T/C [21]: 64.3% | viability, T/C [22]: 54% | viability, T/C [23]: 51.9% | viability, T/C [24]: 22.4% | viability, T/C [25]: 44.9% | viability, T/C [26]: 34.7% | viability, T/C [27]: 35% | viability, T/C [28]: 36.4% | viability, T/C [29]: 27.9% | viability, T/C [30]: 18.5% | viability, T/C [31]: 18.8% | viability, T/C [32]: 20.6% | viability, T/C [33]: 24% | viability, T/C [34]: 17.7% | viability, T/C [35]: 15% | viability, T/C [36]: 9.77%
